According to PubChem BioAssay (NCI):
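Grown in 96-well plates, cells were treated for 48 hours with each compound at five concentrations. Insufficient inhibition: endpoint recorded as highest concentration tested. Definition used: TGI = concentration required for complete inhibition of growth.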

Experiments:
Experiment in all cases: NCI tumour cell line growth inhibition, 48 h
786-0 renal = test system: 786-0 renal
MCF7 breast = test system: MCF7 breast
SK-OV-3 ovarian = test system: SK-OV-3 ovarian
KM12 colon = test system: KM12 colon
U251 CNS = test system: U251 CNS
HCT-15 colon = test system: HCT-15 colon
SF-539 CNS = test system: SF-539 CNS
BT-549 breast = test system: BT-549 breast
SK-MEL-5 melanoma = test system: SK-MEL-5 melanoma
UO-31 renal = test system: UO-31 renal
MDA-MB-231 breast = test system: MDA-MB-231 breast
CAKI-1 renal = test system: CAKI-1 renal
OVCAR-5 ovarian = test system: OVCAR-5 ovarian
OVCAR-3 ovarian = test system: OVCAR-3 ovarian
OVCAR-4 ovarian = test system: OVCAR-4 ovarian
SF-268 CNS = test system: SF-268 CNS
HOP-62 NSCLC = test system: HOP-62 NSCLC
IGROV1 ovarian = test system: IGROV1 ovarian
SK-MEL-28 melanoma = test system: SK-MEL-28 melanoma
PC-3 prostate = test system: PC-3 prostate
RXF 393 renal = test system: RXF 393 renal
A549 NSCLC = test system: A549 NSCLC
MOLT-4 leukemia = test system: MOLT-4 leukemia
HT29 colon = test system: HT29 colon
NCI-H522 lung = test system: NCI-H522 lung
DU-145 prostate = test system: DU-145 prostate
HCC-2998 colon = test system: HCC-2998 colon
EKVX NSCLC = test system: EKVX NSCLC
COLO 205 colon = test system: COLO 205 colon
SNB-19 CNS = test system: SNB-19 CNS
MDA-N = test system: MDA-N
TK-10 renal = test system: TK-10 renal
UACC-257 melanoma = test system: UACC-257 melanoma
NCI-H23 lung = test system: NCI-H23 lung
MALME-3M melanoma = test system: MALME-3M melanoma
T-47D breast = test system: T-47D breast
NCI/ADR-RES ovarian = test system: NCI/ADR-RES ovarian
UACC-62 melanoma = test system: UACC-62 melanoma
NCI-H460 lung = test system: NCI-H460 lung
SW-620 colon = test system: SW-620 colon
SF-295 CNS = test system: SF-295 CNS
OVCAR-8 ovarian = test system: OVCAR-8 ovarian
HCT-116 colon = test system: HCT-116 colon
MDA-MB-435 = test system: MDA-MB-435
SN12C renal = test system: SN12C renal
K-562 leukemia = test system: K-562 leukemia
SNB-75 CNS = test system: SNB-75 CNS
LOX IMVI melanoma = test system: LOX IMVI melanoma
SK-MEL-2 melanoma = test system: SK-MEL-2 melanoma
M14 melanoma = test system: M14 melanoma
HS 578T breast = test system: HS 578T breast
HL-60(TB) leukemia = test system: HL-60(TB) leukemia
CCRF-CEM leukemia = test system: CCRF-CEM leukemia
ACHN renal = test system: ACHN renal
A498 renal = test system: A498 renal
NCI-H226 lung = test system: NCI-H226 lung
RPMI-8226 leukemia = test system: RPMI-8226 leukemia
HOP-92 NSCLC = test system: HOP-92 NSCLC

Measured: TGI

CCOP(=O)(OCC)OC1c2[nH]ccc2-c2cc(C(=O)OC)[nH]c2C1OC (centres undefined)
not listed: A498 renal | NCI-H226 lung | RPMI-8226 leukemia | HOP-92 NSCLC
> 100 µM: all other assays above

O=c1ccn(C2OC(CN(O)CCC3C(O)C(CO)OC3n3ccc(=O)[nH]c3=O)C(O)C2O)c(=O)[nH]1 (centres undefined)
not listed: SF-539 CNS | SK-MEL-5 melanoma | SK-MEL-28 melanoma | RXF 393 renal | MOLT-4 leukemia | NCI-H522 lung | UACC-257 melanoma | UACC-62 melanoma | SW-620 colon | HL-60(TB) leukemia | CCRF-CEM leukemia
> 100 µM: all other assays above

CC(C)(C)N1C(=O)N=[N+](/C(=C(\c2ccccc2)n2nc([O-])n(C(C)(C)C)c2=O)c2ccccc2)C1=O
not listed: HOP-62 NSCLC | IGROV1 ovarian | HT29 colon | NCI-H522 lung | EKVX NSCLC | MALME-3M melanoma | NCI/ADR-RES ovarian | OVCAR-8 ovarian | HL-60(TB) leukemia | NCI-H226 lung
> 100 µM: all other assays above
